ChEMBL document CHEMBL4507291 (2021)

What was measured:
[1] = target: Mitogen-activated protein kinase 3 (Homo sapiens) (UniProt P27361); experiment: Inhibition of Protein Serine/Threonine Kinase, MAPK3 (ERK1) at 10 µM in the Eurofins-Panlabs enzyme assay (Eurofins_assay_171000); details: Compound concentration 10.0 uM
[2] = target: AMPK alpha2/beta1/gamma1 (Homo sapiens) (UniProt P54646+P54619+Q9Y478); experiment: AMPK A2/B1/G1 Kinase screen; type: protein-complex assay; details: Compound concentration 1.0 uM
Chain of AMPK alpha2/beta1/gamma1 (Homo sapiens) (P54619 whole entry partner): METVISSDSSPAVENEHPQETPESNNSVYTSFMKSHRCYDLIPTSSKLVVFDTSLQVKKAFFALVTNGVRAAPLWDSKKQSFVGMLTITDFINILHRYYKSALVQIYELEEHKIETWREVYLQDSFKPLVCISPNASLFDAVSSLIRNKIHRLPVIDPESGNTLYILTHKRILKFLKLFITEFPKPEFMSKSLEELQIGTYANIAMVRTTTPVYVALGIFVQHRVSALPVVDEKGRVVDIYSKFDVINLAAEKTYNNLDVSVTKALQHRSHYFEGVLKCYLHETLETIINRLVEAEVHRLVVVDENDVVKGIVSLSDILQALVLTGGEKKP
Chain of AMPK alpha2/beta1/gamma1 (Homo sapiens) (P54646 whole entry): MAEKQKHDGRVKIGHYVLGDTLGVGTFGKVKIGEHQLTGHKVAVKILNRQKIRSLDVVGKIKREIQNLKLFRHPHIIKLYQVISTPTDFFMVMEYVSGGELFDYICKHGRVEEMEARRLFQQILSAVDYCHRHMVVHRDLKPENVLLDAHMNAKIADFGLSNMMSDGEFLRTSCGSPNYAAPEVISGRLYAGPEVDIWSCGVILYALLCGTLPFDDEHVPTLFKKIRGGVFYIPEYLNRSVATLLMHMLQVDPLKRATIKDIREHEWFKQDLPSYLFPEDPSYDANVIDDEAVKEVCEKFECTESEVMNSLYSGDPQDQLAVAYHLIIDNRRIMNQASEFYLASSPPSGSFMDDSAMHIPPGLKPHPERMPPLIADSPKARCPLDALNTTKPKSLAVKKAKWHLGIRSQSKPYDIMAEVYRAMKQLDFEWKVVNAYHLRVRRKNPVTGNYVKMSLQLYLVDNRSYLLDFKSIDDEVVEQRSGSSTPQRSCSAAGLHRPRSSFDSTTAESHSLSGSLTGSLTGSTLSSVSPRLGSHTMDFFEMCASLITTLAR
Chain of AMPK alpha2/beta1/gamma1 (Homo sapiens) (Q9Y478 2-270 partner limits assumed): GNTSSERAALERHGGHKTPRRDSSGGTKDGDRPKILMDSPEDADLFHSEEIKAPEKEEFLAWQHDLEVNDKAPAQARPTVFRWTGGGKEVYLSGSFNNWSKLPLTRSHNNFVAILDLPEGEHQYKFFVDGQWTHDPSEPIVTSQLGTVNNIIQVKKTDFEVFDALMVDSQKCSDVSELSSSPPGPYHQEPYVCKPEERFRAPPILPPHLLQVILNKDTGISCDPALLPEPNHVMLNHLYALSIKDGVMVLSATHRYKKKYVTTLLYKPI

[3] = target: Calcium/calmodulin-dependent protein kinase type II subunit beta (Homo sapiens) (UniProt Q13554); experiment: CAMK2B (CaMKII beta) Kinase screen; details: Compound concentration 1.0 uM
Chain of Calcium/calmodulin-dependent protein kinase type II subunit beta (Homo sapiens) (Q13554 whole entry): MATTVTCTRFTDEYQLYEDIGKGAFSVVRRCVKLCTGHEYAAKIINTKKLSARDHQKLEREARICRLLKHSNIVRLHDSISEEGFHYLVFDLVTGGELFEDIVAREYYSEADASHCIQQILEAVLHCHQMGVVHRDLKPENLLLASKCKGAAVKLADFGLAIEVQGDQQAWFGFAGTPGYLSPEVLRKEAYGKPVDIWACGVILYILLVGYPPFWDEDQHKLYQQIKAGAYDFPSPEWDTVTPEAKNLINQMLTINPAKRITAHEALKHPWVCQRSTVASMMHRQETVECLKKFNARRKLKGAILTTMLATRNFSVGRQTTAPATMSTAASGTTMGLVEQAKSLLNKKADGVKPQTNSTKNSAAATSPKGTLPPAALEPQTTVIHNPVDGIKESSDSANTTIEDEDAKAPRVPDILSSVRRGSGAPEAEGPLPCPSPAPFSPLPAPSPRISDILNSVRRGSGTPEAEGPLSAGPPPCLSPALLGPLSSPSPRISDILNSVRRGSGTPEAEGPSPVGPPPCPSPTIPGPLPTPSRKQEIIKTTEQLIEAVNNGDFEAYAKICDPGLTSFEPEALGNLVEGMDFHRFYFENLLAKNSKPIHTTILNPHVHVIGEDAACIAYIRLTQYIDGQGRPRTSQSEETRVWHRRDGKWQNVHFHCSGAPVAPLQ

[4] = target: T1, Inhibitor of nuclear factor kappa-B kinase subunit alpha (Homo sapiens) (UniProt O15111); experiment: CHUK (IKK alpha) Kinase screen; details: Compound concentration 1.0 uM
T1 sequence (whole entry): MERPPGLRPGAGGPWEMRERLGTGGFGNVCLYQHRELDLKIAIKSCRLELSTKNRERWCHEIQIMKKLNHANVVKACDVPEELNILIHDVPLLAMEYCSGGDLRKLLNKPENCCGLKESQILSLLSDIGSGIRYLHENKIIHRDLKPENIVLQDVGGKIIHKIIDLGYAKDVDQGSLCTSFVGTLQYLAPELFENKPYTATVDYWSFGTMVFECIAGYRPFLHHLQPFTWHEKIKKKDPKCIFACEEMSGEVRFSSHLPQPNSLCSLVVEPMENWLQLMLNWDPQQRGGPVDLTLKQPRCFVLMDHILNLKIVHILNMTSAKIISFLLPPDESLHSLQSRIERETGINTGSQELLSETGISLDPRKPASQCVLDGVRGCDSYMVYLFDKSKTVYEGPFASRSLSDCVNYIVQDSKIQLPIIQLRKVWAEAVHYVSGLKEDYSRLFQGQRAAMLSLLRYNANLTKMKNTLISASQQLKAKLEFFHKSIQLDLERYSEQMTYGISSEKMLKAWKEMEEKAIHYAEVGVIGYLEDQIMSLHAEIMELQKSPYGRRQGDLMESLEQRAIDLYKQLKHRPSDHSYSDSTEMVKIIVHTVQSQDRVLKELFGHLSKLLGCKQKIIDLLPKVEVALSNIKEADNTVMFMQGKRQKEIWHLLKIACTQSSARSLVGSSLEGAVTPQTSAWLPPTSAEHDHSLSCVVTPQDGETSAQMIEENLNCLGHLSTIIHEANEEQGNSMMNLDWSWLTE

[5] = target: T2, Homeodomain-interacting protein kinase 4 (Homo sapiens) (UniProt Q8NE63); experiment: HIPK4 Kinase screen; details: Compound concentration 1.0 uM
T2 sequence (whole entry): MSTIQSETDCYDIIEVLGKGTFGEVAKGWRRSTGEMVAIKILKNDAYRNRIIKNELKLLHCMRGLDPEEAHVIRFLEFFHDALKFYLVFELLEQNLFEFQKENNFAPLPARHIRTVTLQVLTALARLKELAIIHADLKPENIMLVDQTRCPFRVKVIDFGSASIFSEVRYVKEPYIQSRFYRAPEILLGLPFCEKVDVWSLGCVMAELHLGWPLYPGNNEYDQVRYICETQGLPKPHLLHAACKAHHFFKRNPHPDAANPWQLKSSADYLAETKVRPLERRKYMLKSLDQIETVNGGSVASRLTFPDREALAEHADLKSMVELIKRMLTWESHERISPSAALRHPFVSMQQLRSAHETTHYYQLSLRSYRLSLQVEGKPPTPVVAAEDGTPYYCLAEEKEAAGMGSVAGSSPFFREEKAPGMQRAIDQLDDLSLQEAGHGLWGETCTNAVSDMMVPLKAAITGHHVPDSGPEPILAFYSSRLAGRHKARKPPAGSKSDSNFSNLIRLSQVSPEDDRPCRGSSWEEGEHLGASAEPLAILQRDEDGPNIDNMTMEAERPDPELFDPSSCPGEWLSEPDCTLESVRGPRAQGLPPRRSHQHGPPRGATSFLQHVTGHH

[6] = target: T3, Dual specificity mitogen-activated protein kinase kinase 6 (Homo sapiens) (UniProt P52564); experiment: MAP2K6 (MKK6) Kinase screen; details: Compound concentration 1.0 uM
T3 sequence (whole entry): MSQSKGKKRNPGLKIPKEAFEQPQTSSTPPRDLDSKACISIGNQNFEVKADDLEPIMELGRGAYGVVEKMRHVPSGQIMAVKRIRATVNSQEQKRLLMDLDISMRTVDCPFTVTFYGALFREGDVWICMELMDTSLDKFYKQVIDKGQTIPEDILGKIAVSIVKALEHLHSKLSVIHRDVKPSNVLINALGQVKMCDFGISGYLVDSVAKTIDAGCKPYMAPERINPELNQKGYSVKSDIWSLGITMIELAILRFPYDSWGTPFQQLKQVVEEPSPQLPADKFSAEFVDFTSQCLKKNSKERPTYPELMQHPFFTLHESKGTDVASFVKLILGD

[7] = target: T4, cGMP-dependent protein kinase 2 (Homo sapiens) (UniProt Q13237); experiment: PRKG2 (PKG2) Kinase screen; details: Compound concentration 1.0 uM
T4 sequence (whole entry): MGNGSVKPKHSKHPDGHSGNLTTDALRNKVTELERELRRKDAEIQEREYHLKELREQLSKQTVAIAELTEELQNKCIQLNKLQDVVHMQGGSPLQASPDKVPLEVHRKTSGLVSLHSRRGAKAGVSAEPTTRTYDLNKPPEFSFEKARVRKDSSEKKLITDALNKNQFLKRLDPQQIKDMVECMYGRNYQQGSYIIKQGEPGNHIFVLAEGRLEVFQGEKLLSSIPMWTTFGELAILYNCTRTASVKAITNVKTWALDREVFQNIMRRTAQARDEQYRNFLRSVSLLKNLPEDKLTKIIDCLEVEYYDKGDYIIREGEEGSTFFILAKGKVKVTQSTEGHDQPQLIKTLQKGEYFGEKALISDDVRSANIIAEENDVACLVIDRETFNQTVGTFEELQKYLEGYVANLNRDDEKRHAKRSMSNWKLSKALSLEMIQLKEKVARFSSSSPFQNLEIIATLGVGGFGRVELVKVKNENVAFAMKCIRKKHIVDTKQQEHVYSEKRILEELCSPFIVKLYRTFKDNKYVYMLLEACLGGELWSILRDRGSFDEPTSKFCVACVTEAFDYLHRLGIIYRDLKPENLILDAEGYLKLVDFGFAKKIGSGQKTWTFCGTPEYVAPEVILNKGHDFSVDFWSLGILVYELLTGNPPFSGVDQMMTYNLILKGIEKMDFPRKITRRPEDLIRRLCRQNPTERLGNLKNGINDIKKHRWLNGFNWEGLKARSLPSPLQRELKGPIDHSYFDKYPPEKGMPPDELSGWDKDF

[8] = target: Non-receptor tyrosine-protein kinase TYK2 (Homo sapiens) (UniProt P29597); experiment: TYK2 Kinase screen; details: Compound concentration 1.0 uM
Chain of Non-receptor tyrosine-protein kinase TYK2 (Homo sapiens) (P29597 whole entry): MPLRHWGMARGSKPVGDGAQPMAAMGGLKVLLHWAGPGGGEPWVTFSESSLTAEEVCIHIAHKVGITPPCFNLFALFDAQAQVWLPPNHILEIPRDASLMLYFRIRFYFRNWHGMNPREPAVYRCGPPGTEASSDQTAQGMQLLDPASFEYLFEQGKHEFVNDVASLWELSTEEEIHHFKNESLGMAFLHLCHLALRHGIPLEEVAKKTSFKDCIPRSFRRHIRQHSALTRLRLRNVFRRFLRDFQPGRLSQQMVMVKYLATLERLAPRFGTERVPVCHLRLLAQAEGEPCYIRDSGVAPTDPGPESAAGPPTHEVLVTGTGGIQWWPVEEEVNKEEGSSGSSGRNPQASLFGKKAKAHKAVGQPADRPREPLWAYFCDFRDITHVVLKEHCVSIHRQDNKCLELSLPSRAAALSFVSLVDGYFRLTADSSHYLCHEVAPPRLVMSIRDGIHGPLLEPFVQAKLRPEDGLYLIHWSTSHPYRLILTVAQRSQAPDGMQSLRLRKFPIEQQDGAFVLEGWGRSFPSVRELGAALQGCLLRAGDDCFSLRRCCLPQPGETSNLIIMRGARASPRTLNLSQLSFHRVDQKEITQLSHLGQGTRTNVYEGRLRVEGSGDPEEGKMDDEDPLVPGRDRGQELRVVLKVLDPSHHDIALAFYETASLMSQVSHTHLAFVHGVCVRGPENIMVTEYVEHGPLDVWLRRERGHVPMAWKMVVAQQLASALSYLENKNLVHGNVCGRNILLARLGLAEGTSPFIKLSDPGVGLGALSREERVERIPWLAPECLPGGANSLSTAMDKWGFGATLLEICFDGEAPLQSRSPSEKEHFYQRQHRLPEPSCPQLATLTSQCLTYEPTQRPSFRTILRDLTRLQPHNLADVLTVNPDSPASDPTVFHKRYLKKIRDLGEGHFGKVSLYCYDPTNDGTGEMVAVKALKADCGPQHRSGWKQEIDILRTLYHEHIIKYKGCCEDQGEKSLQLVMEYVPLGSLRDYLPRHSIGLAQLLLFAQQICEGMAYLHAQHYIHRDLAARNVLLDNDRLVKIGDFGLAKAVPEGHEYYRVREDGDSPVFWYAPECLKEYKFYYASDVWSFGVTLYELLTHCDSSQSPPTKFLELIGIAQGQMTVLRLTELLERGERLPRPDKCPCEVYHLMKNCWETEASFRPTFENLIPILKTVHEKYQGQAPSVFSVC

[9] = target: Neurotensin receptor type 1 (Homo sapiens) (UniProt P30989); experiment: Neurotensin NT1 Eurofins-Panlabs radioligand binding assay; set-up: ligand concentration 0.02 nM, non-specific ligand with concentration 1 µM Neurotensin, incubation time 45 min, incubation temperature 25 °C; details: Compound concentration 10.0 uM
Chain of Neurotensin receptor type 1 (Homo sapiens) (P30989 whole entry): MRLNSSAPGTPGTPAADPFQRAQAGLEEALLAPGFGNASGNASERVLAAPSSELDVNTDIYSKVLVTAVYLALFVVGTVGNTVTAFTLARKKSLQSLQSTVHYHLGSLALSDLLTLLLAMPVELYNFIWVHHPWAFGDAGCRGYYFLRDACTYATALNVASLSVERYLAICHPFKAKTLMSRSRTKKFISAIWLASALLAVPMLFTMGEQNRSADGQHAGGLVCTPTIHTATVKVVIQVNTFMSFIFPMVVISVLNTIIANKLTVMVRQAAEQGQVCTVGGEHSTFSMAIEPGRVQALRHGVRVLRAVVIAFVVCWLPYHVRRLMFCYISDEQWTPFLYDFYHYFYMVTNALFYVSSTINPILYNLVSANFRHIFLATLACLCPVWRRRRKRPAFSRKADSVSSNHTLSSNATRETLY

[10] = target: Type-1 angiotensin II receptor (Homo sapiens) (UniProt P30556); details: Compound concentration 10.0 uM
Chain of Type-1 angiotensin II receptor (Homo sapiens) (P30556 whole entry): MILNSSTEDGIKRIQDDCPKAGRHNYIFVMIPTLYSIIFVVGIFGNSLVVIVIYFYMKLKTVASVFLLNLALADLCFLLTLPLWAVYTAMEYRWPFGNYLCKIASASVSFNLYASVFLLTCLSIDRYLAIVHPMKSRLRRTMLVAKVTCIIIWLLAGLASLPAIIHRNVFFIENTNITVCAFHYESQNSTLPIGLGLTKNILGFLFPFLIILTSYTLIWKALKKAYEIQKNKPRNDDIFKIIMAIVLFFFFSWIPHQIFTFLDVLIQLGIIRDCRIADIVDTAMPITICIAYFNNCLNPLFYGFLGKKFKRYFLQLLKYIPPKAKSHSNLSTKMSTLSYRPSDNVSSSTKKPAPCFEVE

Measured: inhibition

Chain of Mitogen-activated protein kinase 3 (Homo sapiens) (P27361 whole entry): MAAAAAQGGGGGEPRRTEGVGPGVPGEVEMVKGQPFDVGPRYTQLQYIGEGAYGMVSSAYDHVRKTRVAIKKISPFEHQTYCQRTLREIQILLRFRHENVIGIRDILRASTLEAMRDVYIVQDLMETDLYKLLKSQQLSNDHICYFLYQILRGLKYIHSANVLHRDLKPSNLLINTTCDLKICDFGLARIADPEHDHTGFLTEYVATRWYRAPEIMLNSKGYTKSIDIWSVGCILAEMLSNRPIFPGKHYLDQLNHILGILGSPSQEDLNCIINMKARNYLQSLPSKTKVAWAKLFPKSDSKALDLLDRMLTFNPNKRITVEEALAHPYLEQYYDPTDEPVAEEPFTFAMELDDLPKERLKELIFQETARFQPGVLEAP

C[C@@H]1CN(c2cc(-c3n[nH]c4ccc(OC5(C)CC5)cc34)ncn2)C[C@H](C)O1 [MLi-2]
inactive: [1] 33% | [2] 5.68% | [3] 12.6% | [4] 8.17% | [5] 6.2% | [6] -2.67% | [7] 1.23% | [8] 1.17% | [9] -2% | [10] 8%
